Reference: US4268630A, “Microbiological production of ketones from C3 -C6 alkanes” (priority 1979, dated 1981)

Assays:
[1] = tested on: secondary alcohol dehydrogenase (SADH); assay: Activity of purified secondary alcohol dehydrogenase (inhibition, substrate specificity, Km); type: biochemical, Pseudomonas sp. ATCC 21439
Method: Secondary alcohol dehydrogenase (SADH) from an obligate methanol utilizer, Pseudomonas sp. ATCC 21439 was purified as follows. […] 0.05 M sodium phosphate buffer, pH 7.0 with 0.5 mM dithiothretol (buffer A) and were disrupted sonically (5×1 min.). The crude extract was separated by centrifugation. The crude extract was heat-treated at 50° C. in a water bath for 10 minutes. The resulting precipitate was removed by centrifugation. To the supernatant solution, 25 ml of protamine sulfate solution (2% solution in 0.1 M Tris base) was added dropwise with continuous stirring. After standing for 30 minutes, the extract was centrifuged. The supernatant solution was fractionated with solid ammonium sulfate. The material precipitating between 30 and 60% saturation was collected and was dialized overnight against buffer A. The The dialized material was applied to a DEAE-cellulose column (3 cm by 35 cm) that had been equilibrated with buffer A. The secondary alcohol dehydrogenase activity was eluted in the void volume. This DEAE-cellulose eluate was concentrated by ammonium sulfate fractionation. Material precipitating between 30 and 50% ammonium sulfate saturation was collected by centrifugation and dialyzed overnight against A. This fraction was further washed and filtered through an Amicon unit with XM 50 membrane. The concentrated fraction (6 ml) inside the Amicon unit was applied to an Affi-Gel Blue column (0.8 cm×18 cm) which had been equilibrated with buffer A for affinity chromatography. The column was washed overnight with buffer A (0.18 ml./min.) and then was eluted with buffer A containing 5 mM NAD. Each 1 ml. fraction was collected.
The purified secondary alcohol dehydrogenase enzyme (SADH) may be used directly for converting C3 -C6 secondary alcohols to the corresponding methyl ketones by the procedures described above; however, a source of NAD^+ must be added to the reaction medium. One can determine the NAD-linked secondary alcohol dehydrogenase activity with a fluorescence spectrophotometer (Perkin Elmer, Model MPF 44A) by following the formation of reduced NAD (Ex 340 nm, Em 460 nm). The assay system (3 ml.) will typically contain: sodium phosphate buffer pH 7.0, 150 μmol; NAD 1.0 μmol; a given amount of enzyme preparation; and 20 μmol secondary alcohol. The reaction is started by the addition of secondary alcohol. One unit of SADH enzyme activity represents the reduction of one nmole NAD per minute.
The effect of metal-chelating agents and thioreagents on the activity of the purified SADH enzyme were studied. […] The possibility of ethanol or n-propanol as an inhibitor was studied.

Pichia sp. NRRL-Y-11328 = assay: Oxidation of sec-alcohols to ketones by cell suspensions of yeasts; type: cell-based
[2] = tested on: Kloeckera sp. Strain A2 (NRRL Y-11,420); assay: as above; type: cell-based
[3] = tested on: cell extracts of Candida utilis ATCC 26,387; assay: NAD+-dependent oxidation of secondary alcohols by cell extracts of yeasts; type: biochemical; settings: cell extracts, grown on methanol, NAD+; gas chromatography
[4] = tested on: Methylomonas methanica S1 (NRRL B-11,199); assay: Oxidation of sec-alcohols to ketones by resting cell suspension; type: cell-based
Method: (§1) The pH of the nutrient medium was adjusted to 7.0 by the addition of acid or base and 50 ml. samples of the nutrient medium were charged into a plurality of 300 ml. shaker flasks. The shaker flasks were inoculated with an inoculating loop of cells from an agar plate containing homogeneous colonies of the microorganisms on the plate (the purity of the isolates was confirmed by microscopic examination). The isolates had been maintained on methanol (0.4% V/V) agar plates or on agar plates under an atmosphere of methane and air having a 1:1 V/V gas ratio which had been transferred every two weeks. For growth on methanol, the medium was supplemented with 0.4% methanol. For growth on methane, the gaseous phase of the inoculated flasks was replaced with a gas mixture comprised on methane and air having a ratio of 1:1 on a V/V basis. The inoculated flasks were sealed air-tight and were incubated on a rotary shaker of orbital radius 2.5 cm. at 250 rpm and at 30° C. for two days until turbidity in the medium had developed. The cells were harvested by centrifugation at 10,000×g. at 4° C. for 30 minutes. The cell pellet was washed twice with a 0.05 M phosphate buffer at a pH of 7.0 (containing 0.02 M MgCl2). The washed cells were then suspended in a 0.05 M phosphate buffer at pH 7.0.
(§2) A 0.5 ml. sample of each washed cell suspension (2 mg. cells) was put into 10 ml. vials at 4° C. which were sealed with a rubber cap. The gaseous phase of the vials was removed with vacuum and then was replaced with a gas mixture of the substrate reactant (i.e., alkane or secondary alcohol) and oxygen at a 1:1 V/V ratio. (In the case of a liquid substrate, i.e., secondary alcohol, 10 μl of the substrate was put in the 10 ml. vials). […] Samples of product (1-3 μl) were withdrawn periodically with a microsyringe and the products were analyzed by gas chromatography (ionization flame detector column).
(§3) The procedure in Example 1 was repeated wherein a plurality of the methane-utilizing methylotrophic microorganisms were each grown aerobically in a nutrient medium containing methane as the alcohol dehydrogenase enzyme inducer and as the major carbon and energy source for growth. The cells were harvested and washed as described in Example 1. The resting microbial cells of the induced methane-grown methane-utilizing methylotrophic microorganisms were then contacted with C3 -C6 secondary alcohols in a buffered solution by the procedure of Example 1.
(§4) In this example, the procedure in Example 1 was repeated except that a plurality of methane-utilizing methylotrophic microorganisms were each aerobically grown in a methanol-containing nutrient medium instead of a methane-containing medium. The nutrients in the medium were the same as indicated in Example 1 except that 0.4% V/V methanol was used as the alcohol dehydrogenase inducer and major source of carbon and energy for growth. Following growth, the cells were harvested and washed as described in Example 1. The resting cells of the induced methanol-grown methylotrophic microorganisms were then contacted with secondary alcohols in a buffered solution by the procedure described in Example 1.

[5] = tested on: Methylobacter capsulatus Y (NRRL B-11,201); assay: as above; type: cell-based
Method: as §1, §2, §3, §4

[6] = tested on: Methylocystis parvus OBBP (NRRL B-11,198); assay: as above; type: cell-based
Method: as §1, §2, §3, §4

[7] = tested on: Methylococcus capsulatus, Texas (ATCC 19069); assay: as above; type: cell-based
Method: as §1, §2, §3, §4

[8] = tested on: Candida utilis ATCC 26387; assay: Oxidation of sec-alcohols to ketones by cell suspensions of yeasts; type: cell-based

Structure (SMILES): CCCCC(C)O (centres unmarked) [2-Hexanol, 2-hexanol]
- substrate specificity of purified SADH (in words) [1]: lower rate
- relative percent rate of oxidation ([1]; 2-butanol = 100%): 2%
- Conversion Rate, sec-alcohol to ketone (Pichia sp. NRRL-Y-11328; growth substrate Ethanol): 0.28 μmoles/hr/mg of protein
- Conversion Rate, sec-alcohol to ketone (Pichia sp. NRRL-Y-11328; growth substrate Methanol): 0.50 μmoles/hr/mg of protein
- Conversion Rate, sec-alcohol to ketone (Pichia sp. NRRL-Y-11328; growth substrate Methylamine): 0.31 μmoles/hr/mg of protein
- Conversion Rate, sec-alcohol to ketone (Pichia sp. NRRL-Y-11328; growth substrate Methylformate): 0.48 μmoles/hr/mg of protein
- Conversion Rate, sec-alcohol to ketone (Pichia sp. NRRL-Y-11328; growth substrate Propylamine): 0.21 μmoles/hr/mg of protein
- Conversion Rate, sec-alcohol to ketone ([2]; growth substrate Ethanol): 0.12 μmoles/hr/mg of protein
- Conversion Rate, sec-alcohol to ketone ([2]; growth substrate Methanol): 0.25 μmoles/hr/mg of protein
- Conversion Rate, sec-alcohol to ketone ([2]; growth substrate Methylamine): 0.10 μmoles/hr/mg of protein
- Conversion Rate, sec-alcohol to ketone ([2]; growth substrate Methylformate): 0.28 μmoles/hr/mg of protein
- Conversion Rate, sec-alcohol to ketone ([2]; growth substrate Propylamine): 0.11 μmoles/hr/mg of protein
- Conversion Rate, secondary alcohol to methylketone [3]: 0.45 μmoles/hr/mg Protein
- Conversion Rates, sec-alcohol to methyl ketone ([4]; cells grown on methanol): 0.04 μmoles/hr/mg protein
- Conversion Rates, sec-alcohol to methyl ketone ([4]; resting cells grown on methane): 0.01 μmoles/hr/mg protein
- Conversion Rates, sec-alcohol to methyl ketone ([5]; cells grown on methanol): 0.12 μmoles/hr/mg protein
- Conversion Rates, sec-alcohol to methyl ketone ([5]; resting cells grown on methane): 0.1 μmoles/hr/mg protein
- Conversion Rates, sec-alcohol to methyl ketone ([6]; cells grown on methanol): 0.05 μmoles/hr/mg protein
- Conversion Rates, sec-alcohol to methyl ketone ([6]; resting cells grown on methane): 0.065 μmoles/hr/mg protein
- Conversion Rates, sec-alcohol to methyl ketone ([7]; cells grown on methanol): 1.3 μmoles/hr/mg protein
- Conversion Rates, sec-alcohol to methyl ketone ([7]; resting cells grown on methane): 1.0 μmoles/hr/mg protein
- Conversion Rate, sec-alcohol to ketone ([8]; growth substrate Ethanol): 0.72 μmoles/hr/mg of protein
- Conversion Rate, sec-alcohol to ketone ([8]; growth substrate Methanol): 0.8 μmoles/hr/mg of protein
- Conversion Rate, sec-alcohol to ketone ([8]; growth substrate Methylamine): 0.61 μmoles/hr/mg of protein
- Conversion Rate, sec-alcohol to ketone ([8]; growth substrate Methylformate): 0.75 μmoles/hr/mg of protein
- Conversion Rate, sec-alcohol to ketone ([8]; growth substrate Propylamine): 0.52 μmoles/hr/mg of protein
